# From patent publication US20240335539A1, “MODULATION OF BCL-2 TO ENHANCE CHIMERIC ANTIGEN RECEPTOR CANCER IMMUNOTHERAPY EFFICACY” (The Trustees of the University of Pennsylvania, priority 2021, published 2024)
# How the values were obtained:
# [1] = tested on: tumor cells; details: Karlsson et al. 2013; Yang et al. 2020; cited from earlier work
# [2] = tested on: CART19; test: AZD5991 CART cell toxicity, co-culture with irradiated NALM6 for 120 hours; type: cell-based, human; details: 110-10000 nM, E:T 0.25:1
# Description: To quantify CART cell toxicity, CART19 was co-cultured with irradiated NALM6 in the presence of either vehicle (DMSO), venetoclax or AZD5991 for 120 hours. After co-culture, samples were stained with anti-CD3 antibody and anti-CAR19 idiotype antibody to distinguish between effector (T cells) and target cells (NALM6). Survival of CART cell were then measured by using flow cytometry. E:T ratio=0.25:1. Concentrations of venetoclax and AZD5991: 110 nM, 330 nM, 1100 nM, 3300 nM and 10000 nM. […] All data represent mean±SD. **P<0.005, *P<0.05. ns: not significant.
# To investigate this hypothesis, the expansion and persistence of CART19 cells in the peripheral blood of NSG mice treated with CART19 plus venetoclax or CART19 alone was analyzed using flow cytometry. […] To test whether prolonged exposure to venetoclax leads to CART cell toxicity, an in vitro venetoclax toxicity assay was performed using CART cells manufactured from 8 different T cell donors. […] Of note, the level of toxicity to CART cells varied among the different T cell donors, likely due to different apoptotic priming statuses at baseline. […] In order to discern whether the reduced survival was due to increased apoptosis or reduction of proliferation, the caspase 3/7 activity in CART19 was assessed in the presence or absence of venetoclax. […]
# [3] = tested on: MINO, Z-138, MAVER, OCI-Ly18, SU-DHL-4, NALM6, MOLM-14; test: CART plus venetoclax or AZD5991 tumor killing, 48 hours; type: cell-based; details: AZD5991 125 nM, with CART19 (CART33 for MOLM-14)
# Description: To investigate whether inhibition of MCL-1, another key anti-apoptotic regulator, lead to enhancement of tumor killing, various B-cell malignant (luciferase+) cell lines were co-cultured with either vehicle (DMSO), venetoclax or AZD5991 in the presence of CART19 for 48 hours and change of luminescence intensity was measured to quantify the tumor killing. To test the combination effect of CART/drug in different tumor types, AML cell lines (luciferase positive MOLM-14) were co-cultured with CART33 in the presence of either venetoclax or AZD5991. Tumor killing (%) was calculated using the formula: (sample−maximal tumor growth)/(lysis control−maximal tumor growth)×100. MINO (Venetoclax: 1 nM, AZD5991: 125 nM), Z-138 (Venetoclax: 25 nM, AZD5991: 125 nM), MAVER (Venetoclax: 25 nM, AZD5991: 125 nM), OCI-Ly18 (Venetoclax: 10 nM, AZD5991: 125 nM), SU-DHL-4 (Venetoclax: 500 nM, AZD5991: 125 nM), NALM6 (Venetoclax: 500 nM, AZD5991: 125 nM), MOLM-14 (Venetoclax: 125 nM, AZD5991: 125 nM). […] CART19: anti-CD19 CAR T cell.
# CART19 cells were co-cultured with either vehicle (DMSO) or venetoclax and cytotoxicity was measured at 48 hours. […] This effect was further confirmed using primary NHL cells (MCL) (FIG. 1D). […]
# [4] = tested on: NALM6; test: Targeted pro-apoptotic small molecule screening with CART19 against NALM6, killing by luminescence at 48 hours; details: drug 100 and 1000 nM with CART19
# Description: Killing of NALM6 cells was quantified at 48 hours by luminescence. Drug screening of pro-apoptotic small molecules was performed with two concentrations (100 and 1000 nM). […] Two concentrations of 29 drugs were used (100 nM and 1000 nM). Killing of NALM6 cells was assessed at 48 hours by luminescence. […] UTD: untransduced T cells; CART19: anti-CD19 CAR T cell; MCL: mantle cell lymphoma; E:T=ratio of effector to target; IAP: Inhibition of apoptosis protein.
# CART19 and NALM6 (luciferase+) cells were seeded at a ratio of 0.08E:1T (i.e., 600 CART: 7000 NALM6) per well in 25 μl of growth medium (RPMI1640+10% FBS+1% Pen-strep+1% glutamine) of 384-well Corning 3570 microplate using a Multidrop™ Combi Reagent Dispenser (Thermo Scientific). Following cell seeding, drugs (50 nL) were transferred to assay plates using a 50 nL slotted pin tool (V&P Scientific) and a JANUS Automated Workstation (Perkin Elmer). Compounds/drugs were added to a final concentration of 1 μM in 0.2% DMSO. Columns 1 and 23 were treated with 0.2% DMSO (negative control). […] Luminescence was measured on an EnVision Xcite Multilabel Plate Reader (PerkinElmer), using the ultrasensitive luminescence measurement technology.
# In order to screen pro-apoptotic small molecules that can enhance CART cell killing, a targeted screening assay was performed. […] Tumor killing was measured by luminescence at 48 hours.
# [5] = tested on: CART19-BCL-2(WT); test: Cytotoxicity of doxorubicin on CART cells, 24 hours; type: cell-based, human; details: doxorubicin 300 and 1000 nM
# Text: FIGS. 26A-26H illustrate the finding that increased BCL-2 expression in T cells from CART apheretic products is associated with positive clinical outcomes in lymphoma patients at long term. FIG. 26A is a schematic description of the approach taken to investigate the relationship between the level of BCL-2 and CART's clinical response. RNA was extracted from T cells from apheretic products of 38 lymphoma patients who received CART19 immunotherapy (CTL019, i.e., tisagenleucleucel) in the clinical trial (NCT02030834). Next, BCL-2 mRNA expression was quantified via the nCounter analysis system (NanoString Technologies, Inc, Seattle, WA). FIG. 26B is a volcano plot showing differential gene expression in T cells based on best overall response (CR or NR). […] EGFR: Epidermal growth factor receptor.
# Nevertheless, to further investigate the safety profile of this approach, whether CART19-BCL-2(WT) cells are still sensitive to conventional cytotoxic drugs such as chemotherapy (e.g., doxorubicin) was assessed. […] Furthermore, to enhance the safety profile of CART19-BCL-2(WT) cells, a CART suicide system (Paszkiewicz, et al., The Journal of clinical investigation 2016; 126(11):4262-72) was employed by expressing truncated EGFR into CART19-BCL-2(WT).
smiles,measurement,setting,value
CN(C)CC[C@H](CSc1ccccc1)Nc1ccc(S(=O)(=O)NC(=O)c2ccc(N3CCN(Cc4ccccc4-c4ccc(Cl)cc4)CC3)cc2)cc1[N+](=O)[O-] [ABT737],CART-mediated tumor killing (literature),[1],significant increase of CART-mediated tumor killing
Cc1c2c(nn1C)CSCc1cc(n(C)n1)CSc1cc(c3ccccc3c1)OCCCc1c(C(=O)O)n(C)c3c-2c(Cl)ccc13 [AZD5991],CART cell toxicity (CART survival),[2],induces severe CART cell toxicity
same,Enhancement of tumor killing in presence of CART,[3],"venetoclax, but not AZD5991 (MCL-1 inhibitor), leads to enhancement of tumor killing"
CC[C@H](NC(=O)[C@H](C)NC)C(=O)N1C[C@@H](O)C[C@H]1Cc1c(-c2[nH]c3cc(F)ccc3c2C[C@@H]2C[C@H](O)CN2C(=O)[C@H](CC)NC(=O)[C@H](C)NC)[nH]c2cc(F)ccc12 [birinapant],Enhancement of CART19 killing / CART cell cytotoxicity,[4],increased CART cell cytotoxicity
COc1cccc2c1C(=O)c1c(O)c3c(c(O)c1C2=O)C[C@@](O)(C(=O)CO)C[C@@H]3O[C@H]1C[C@H](N)[C@H](O)[C@H](C)O1 [doxorubicin],Elimination of BCL-2-expressing CART cells,[5],fast and effective elimination of CART19-BCL-2(WT)
